According to US9596874B2, “Bitter taste masking compositions and method of masking bitter taste” (Givaudan S.A., priority 2010, dated 2017):

Test: Panel tasting of KCl/NaCl solutions in water
Conditions: for masking of the off-notes of KCl: 5000 ppm sugar alcohol in water with 1600 ppm KCl and 800 ppm NaCl, panel of professional tasters
Method: Three solutions were prepared: • A 1600 ppm of KCl and 800 ppm of NaCl in water • B 1600 ppm of KCl and 800 ppm of NaCl in water containing 5000 ppm of mannitol • C 1600 ppm of KCl and 800 ppm of NaCl in water containing 5000 ppm of dulcitol The solutions were compared by a panel of professional tasters.

| Structure (SMILES) | masking of the off-notes of KCl | masking compared with mannitol (5000 ppm dulcitol vs 5000 ppm mannitol, 1600 ppm KCl and 800 ppm NaCl in water, panel) | taste perception (5000 ppm dulcitol, 1600 ppm KCl and 800 ppm NaCl in water, panel) |
| --- | --- | --- | --- |
| OC[C@@H](O)[C@@H](O)[C@H](O)[C@H](O)CO [mannitol, Mannitol] | mask the off-notes KCl well | – | – |
| OC[C@@H](O)[C@H](O)[C@H](O)[C@@H](O)CO [dulcitol, Galactitol (=dulcitol)] | mask the off-notes KCl well | noticeably better in masking | more positive, described as ‘rounded-off’, perception |
